Results taken from US4652575A, “2-(ethylene-thio methyl furanyl)amino thiazole derivatives having acid secretion inhibiting activity” (Medosan Industrie Biochimiche Riunite S.p.A., priority 1984, dated 1987).
Where two headings read alike, the source gives them in different places.

Tests used:
gastric secretion = assay: Activity on gastric secretion "in vivo" (volume and total acidity of gastric juice after pylorus tieing, Shay); design: species or system male Wistar rats; conditions: for Total acidity gastric juice secretion / Volume gastric juice secretion / change in vivo at 20 mg/kg: 20 mg/kg oral
Method: (§1) The preparations were a solution of the substances in 2.5% citric acid for the "in vitro" test and 5% citric acid for the "in vivo" test respectively. Citric acid was diluted in normal physiologic saline at neutral pH.
The ability of the compounds according to the present invention to inhibit the gastric secretion was studied "in vivo" both by evaluating the volume reduction of gastric juice, and by measuring the total acidity of same after administration of the substances under test according to the Takeda method (see the aforementioned literature).
To this end, tests have been made on male Wistar rats of an average weight of 200 g. The animals, 10 for each substance, were placed into individual cages provided with ground grating in order to avoid coprophagy, without food but with free access to water for 24 hours before test. […] Four hours later the animals were sacrificed and the gastric juice was collected, of which the volume expressed in ml and the total acidity expressed in mEq was measured. The gastric juice ([…] ) was titrated with 0.1N NaOH to pH 7 to determine the acid concentration. The total acidity was then calculated as the product of the total volume of gastric juice by the acid concentration.

histamine H2 receptors [1] = biological target: T1, histamine H2 receptors (Cavia porcellus, UniProt P47747); assay: Antagonistic activity to the histamine H2 receptors "in vitro" on insulated atrium auricolas of Guinea pig heart; conditions: guinea pig, 0.5 h; for inhibition at 10 µM: read-out: Antagonizing activity to histamine H2 receptors, compound 1·10^-5 M/L; for inhibition at 1 µM: read-out: Antagonizing activity to histamine H2 receptors, compound 1·10^-6 M/L; for inhibition at 0.1 µM: read-out: Antagonizing activity to histamine H2 receptors, compound 1·10^-7 M/L
T1 construct: tests on insulated atrium auricolas of Guinea pig heart; from tissue; host or cells: isolated guinea pig heart atrium
Method: as §1
This activity was evaluated "in vitro" by carrying out tests on insulated atrium auricolas of Guinea pig heart. […] Metering was carried out by placing the preparation into a vessel containing a Ringer-Locke solution wherein pure oxygen was bubbling, at a temperature of 37° C. A response of the organ "in vitro" was first established at cumulative histamine doses of 2.5.10^-7, 5.10^-7, 10^-6, 5.10^-6, 10^-5 M/L. After obtaining two constant lines with histamine at a time interval of one hour from one another, the substances under test were added to the bath and after a 30 minutes contact with the preparation, a new histamine response line in the presence of the substance under test was drawn. The activity was tested at various concentrations of the new compounds (10^-5, 10^-6, 10^-7 and in one case 10^-8 M/L).

gastric acid secretion = conditions: experimental tests on animals and humans; prior art; cited from earlier work
histamine H2 receptors [2] = biological target: T1, histamine H2 receptors; conditions: Daly M. J., Br. J. Pharmac., 72, 49, 1982; cited from earlier work
[3] = Acute toxicity (DL50) in rat; conditions: in vivo, po
Excerpt: The animals were kept under observation by checking mortality and possible pain signs for 15 days from start of test.

T1 sequence (P47747 whole entry): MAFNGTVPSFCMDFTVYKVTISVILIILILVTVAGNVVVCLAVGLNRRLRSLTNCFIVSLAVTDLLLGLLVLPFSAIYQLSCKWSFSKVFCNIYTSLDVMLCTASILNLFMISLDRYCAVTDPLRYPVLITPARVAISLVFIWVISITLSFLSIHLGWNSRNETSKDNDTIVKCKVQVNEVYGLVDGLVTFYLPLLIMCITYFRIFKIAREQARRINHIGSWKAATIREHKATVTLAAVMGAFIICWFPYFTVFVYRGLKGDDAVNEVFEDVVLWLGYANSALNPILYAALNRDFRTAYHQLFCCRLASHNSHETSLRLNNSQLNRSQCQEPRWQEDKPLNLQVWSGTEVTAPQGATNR

Structure (SMILES): CNC(=C[N+](=O)[O-])NCCSCc1ccc(CN(C)C)o1 [Ranitidine, reference compound]
- Total acidity gastric juice secretion (gastric secretion; 6 hours before pilorus tieing): 0,12 mEq/4 hours
- Volume gastric juice secretion (gastric secretion; 6 hours before pilorus tieing): 4,8 ml/4 hours
- Total acidity gastric juice secretion (gastric secretion; 12 hours before pilorus tieing): 0,16 mEq/4 hours
- Volume gastric juice secretion (gastric secretion; 12 hours before pilorus tieing): 4,9 ml/4 hours
- Total acidity gastric juice secretion (gastric secretion; 24 hours before pilorus tieing): 0,17 mEq/4 hours
- Volume gastric juice secretion (gastric secretion; 24 hours before pilorus tieing): 5,3 ml/4 hours
- Total acidity gastric juice secretion (gastric secretion; 36 hours before pilorus tieing): 0,16 mEq/4 hours
- Volume gastric juice secretion (gastric secretion; 36 hours before pilorus tieing): 5,4 ml/4 hours
- change in vivo at 20 mg/kg (gastric secretion; Rattus norvegicus, po, 6 hours before pilorus tieing, read-out: Total acidity gastric juice secretion, Variation %): -29%
- change in vivo at 20 mg/kg (gastric secretion; Rattus norvegicus, po, 6 hours before pilorus tieing, read-out: Volume gastric juice secretion, Variation %): -9%
- change in vivo at 20 mg/kg (gastric secretion; Rattus norvegicus, po, 12 hours before pilorus tieing, read-out: Total acidity gastric juice secretion, Variation %): 6%
- change in vivo at 20 mg/kg (gastric secretion; Rattus norvegicus, po, 12 hours before pilorus tieing, read-out: Volume gastric juice secretion, Variation %): -4%
- change in vivo at 20 mg/kg (gastric secretion; Rattus norvegicus, po, 24 hours before pilorus tieing, read-out: Total acidity gastric juice secretion, Variation %): 0%
- change in vivo at 20 mg/kg (gastric secretion; Rattus norvegicus, po, 24 hours before pilorus tieing, read-out: Volume gastric juice secretion, Variation %): -5%
- change in vivo at 20 mg/kg (gastric secretion; Rattus norvegicus, po, 36 hours before pilorus tieing, read-out: Total acidity gastric juice secretion, Variation %): 0%
- change in vivo at 20 mg/kg (gastric secretion; Rattus norvegicus, po, 36 hours before pilorus tieing, read-out: Volume gastric juice secretion, Variation %): -3%
- ED50 (gastric secretion; Rattus norvegicus, po, per os, 1 hour before pilorus tieing, read-out: DE50 in rat calculated on total acidity (mEq/4 hours)): 5.2 mg/kg
- inhibition at 10 µM (histamine H2 receptors [1]; histamine 1·10^-5 M/L): 90%
- inhibition at 10 µM (histamine H2 receptors [1]; histamine 1·10^-6 M/L): 100%
- inhibition at 10 µM (histamine H2 receptors [1]; histamine 2,5·10^-7 M/L): 100%
- inhibition at 10 µM (histamine H2 receptors [1]; histamine 5·10^-6 M/L): 95%
- inhibition at 10 µM (histamine H2 receptors [1]; histamine 5·10^-7 M/L): 100%
- inhibition at 1 µM (histamine H2 receptors [1]; histamine 1·10^-5 M/L): 36%
- inhibition at 1 µM (histamine H2 receptors [1]; histamine 1·10^-6 M/L): 97%
- inhibition at 1 µM (histamine H2 receptors [1]; histamine 2,5·10^-7 M/L): 100%
- inhibition at 1 µM (histamine H2 receptors [1]; histamine 5·10^-6 M/L): 67%
- inhibition at 1 µM (histamine H2 receptors [1]; histamine 5·10^-7 M/L): 100%
- inhibition at 0.1 µM (histamine H2 receptors [1]; histamine 1·10^-5 M/L): 2%
- inhibition at 0.1 µM (histamine H2 receptors [1]; histamine 1·10^-6 M/L): 45%
- inhibition at 0.1 µM (histamine H2 receptors [1]; histamine 2,5·10^-7 M/L): 85%
- inhibition at 0.1 µM (histamine H2 receptors [1]; histamine 5·10^-6 M/L): 25%
- inhibition at 0.1 µM (histamine H2 receptors [1]; histamine 5·10^-7 M/L): 70%
- reduction of gastric acid secretion (in words) (gastric acid secretion): effective to reduce the gastric acid secretion
- antagonism of histamine induced increase of contraction frequency of the insulated atrium (in words) (histamine H2 receptors [2]): competitively antagonize
- LD50 [3]: 2000 mg/kg
- LD50 at 360 h [3]: 1600 mg/kg
